Assay results taken from patent US10662259B2, “Glycogen-based water solubility enhancers” (AZIENDE CHIMICHE RIUNITE ANGELINI FRANCESCO A.C.R.A.F. …, priority 2013, dated 2020).

Legend:
[1] = Solubility enhancement of astaxanthin in water solutions of the compounds (HPLC); details: water solution containing 5 mg/mL of compound, excess astaxanthin (1 mg/mL), room temperature, 24 hours, 0.45 μm filter
Description: The suspension was mixed using a laboratory shaker at room temperature for 24 hours. The concentration (mg/mL) of solubilized astaxanthin was determined by HPLC analysis. The sample was prepared for chromatographic analysis by filtering through a 0.45 μm MCE filter.
An X-Bridge™ Shield RP18 column (4.6×150 mm) was used. A suitable HPLC analytical method was developed for quantitating the amount of astaxanthin in solution.
The absorbance was monitored at 489 nm and the injection volume was 6 μL. In these chromatographic conditions, astaxanthin was eluted in about 4.0 minutes.
An appropriate dilution of each sample was made with dimethylsulfoxide, such that astaxanthin final concentration was within the linear portion of the standard curve, prior to injection onto the HPLC column.
The amount of astaxanthin in mg/mL was calculated by introducing the analyte peak area in the calibration curve fit-equation and multiplying the result by the dilution factor.

[2] = Solubility enhancement of β-carotene in water solutions of the compounds (HPLC); details: 5 mg/mL compound in water, excess β-carotene
Description: The suspensions were left under stirring for 24 hours. Solutions A to N were obtained.
The suspensions were left under stirring for 24 hours. Solutions O to R were obtained.
An excess amount of β-carotene (5 mg/mL) was added to 1 mL of each solution A to R. The suspension was mixed using a laboratory shaker at room temperature for 24 hours. The concentration (mg/mL) of solubilized β-carotene was determined by HPLC analysis. The sample was prepared for chromatographic analysis by filtering through a 0.45 μm MCE filter.
An X-Bridge™ Shield RP18 column (4.6×150 mm) was used. A suitable HPLC analytical method was developed for quantitating the amount of drug in solution.
An appropriate dilution of each sample was made with dimethylsulfoxide, such that β-carotene final concentration was within the linear portion of the standard curve, prior to injection onto the HPLC column.
The amount of β-carotene in mg/mL was calculated by introducing the analyte peak area in the calibration curve fit-equation and multiplying the result by the dilution factor.

[3] = β-carotene alone; cited from earlier work

| Compound | Aqueous solubility of astaxanthin in the presence of the compound [1] [µg/mL] | Visual aspect of the solution with β-carotene [2] | Water solubility [3] |
| --- | --- | --- | --- |
| OC[C@H]1O[C@@H]2O[C@H]3[C@H](O)[C@@H](O)[C@@H](O[C@H]4[C@H](O)[C@@H](O)[C@@H](O[C@H]5[C@H](O)[C@@H](O)[C@@H](O[C@H]6[C@H](O)[C@@H](O)[C@@H](O[C@H]7[C@H](O)[C@@H](O)[C@@H](O[C@H]8[C@H](O)[C@@H](O)[C@@H](O[C@H]1[C@H](O)[C@H]2O)O[C@@H]8CO)O[C@@H]7CO)O[C@@H]6CO)O[C@@H]5CO)O[C@@H]4CO)O[C@@H]3CO [Compound 15, β-cyclodextrin (CAVAMAX W7)] | 0.5 | – | – |
| OC[C@H]1O[C@@H]2O[C@H]3[C@H](O)[C@@H](O)[C@@H](O[C@H]4[C@H](O)[C@@H](O)[C@@H](O[C@H]5[C@H](O)[C@@H](O)[C@@H](O[C@H]6[C@H](O)[C@@H](O)[C@@H](O[C@H]7[C@H](O)[C@@H](O)[C@@H](O[C@H]8[C@H](O)[C@@H](O)[C@@H](O[C@H]9[C@H](O)[C@@H](O)[C@@H](O[C@H]1[C@H](O)[C@H]2O)O[C@@H]9CO)O[C@@H]8CO)O[C@@H]7CO)O[C@@H]6CO)O[C@@H]5CO)O[C@@H]4CO)O[C@@H]3CO [Compound 14, γ-cyclodextrin (CAVAMAX W8)] | 1.2 | – | – |
| HP-β-cyclodextrin (CAVASOL W7 HP) [Compound 16] | 0.7 | pale pink color | – |
| CC1=C(/C=C/C(C)=C/C=C/C(C)=C/C=C/C=C(C)/C=C/C=C(C)/C=C/C2=C(C)CCCC2(C)C)C(C)(C)CCC1 [β-carotene] | – | – | below 1 mg/L |
